Measured values taken from the NIST ThermoML archive (doi:10.1021/je700140j).
± gives the expanded uncertainty stated by the source.

Test: xn = mol fraction of the nth substance listed
Conditions: for surface tension liquid-gas: Ring tensiometer; for mass density / viscosity: 100.8 kPa, Liquid

OCc1ccccc1 [benzenemethanol] + CC(C)O
Conditions	mass density, 298.15 K [kg/m3]	mass density, 308.15 K [kg/m3]	mass density, 318.15 K [kg/m3]	surface tension liquid-gas, 298.15 K [mN/m]	surface tension liquid-gas, 308.15 K [mN/m]	surface tension liquid-gas, 318.15 K [mN/m]	viscosity, 298.15 K [mPa·s]	viscosity, 308.15 K [mPa·s]	viscosity, 318.15 K [mPa·s]
x2 = 0	1041.4 ± 0.29	1033.6 ± 0.27	1025.72 ± 0.26	38.63 ± 0.54	37.73 ± 0.53	36.75 ± 0.52	5.555 ± 0.071	4.093 ± 0.054	3.12 ± 0.041
x2 = 0.05	1032.82 ± 0.27	1025.02 ± 0.26	1017.09 ± 0.24	37.5 ± 0.53	36.66 ± 0.52	35.75 ± 0.51	5.299 ± 0.068	3.91 ± 0.051	2.989 ± 0.04
x2 = 0.1	1023.74 ± 0.25	1015.91 ± 0.24	1007.96 ± 0.22	36.4 ± 0.51	35.63 ± 0.5	34.76 ± 0.49	5.053 ± 0.066	3.73 ± 0.049	2.864 ± 0.038
x2 = 0.15	1014.27 ± 0.24	1006.4 ± 0.22	998.38 ± 0.21	35.35 ± 0.5	34.6 ± 0.49	33.77 ± 0.48	4.799 ± 0.062	3.558 ± 0.047	2.745 ± 0.036
x2 = 0.2	1004.39 ± 0.22	996.5 ± 0.21	988.43 ± 0.23	34.3 ± 0.49	33.59 ± 0.48	32.78 ± 0.47	4.559 ± 0.059	3.389 ± 0.045	2.628 ± 0.035
x2 = 0.25	994.22 ± 0.22	986.26 ± 0.24	978.11 ± 0.25	33.27 ± 0.48	32.58 ± 0.47	31.81 ± 0.46	4.332 ± 0.057	3.23 ± 0.043	2.513 ± 0.033
x2 = 0.3	983.63 ± 0.24	975.59 ± 0.26	967.39 ± 0.27	32.27 ± 0.46	31.58 ± 0.45	30.83 ± 0.45	4.116 ± 0.054	3.076 ± 0.041	2.4 ± 0.032
x2 = 0.35	972.64 ± 0.27	964.56 ± 0.28	956.29 ± 0.29	31.27 ± 0.45	30.58 ± 0.44	29.85 ± 0.43	3.911 ± 0.051	2.921 ± 0.039	2.285 ± 0.031
x2 = 0.4	961.2 ± 0.29	953.08 ± 0.31	944.75 ± 0.32	30.3 ± 0.44	29.6 ± 0.43	28.9 ± 0.42	3.714 ± 0.049	2.772 ± 0.037	2.172 ± 0.029
x2 = 0.45	949.36 ± 0.32	941.19 ± 0.33	932.79 ± 0.35	29.36 ± 0.43	28.66 ± 0.42	27.95 ± 0.41	3.523 ± 0.046	2.631 ± 0.035	2.059 ± 0.028
x2 = 0.5	937.02 ± 0.34	928.79 ± 0.36	920.32 ± 0.38	28.45 ± 0.42	27.75 ± 0.41	27.05 ± 0.4	3.335 ± 0.044	2.49 ± 0.033	1.953 ± 0.026
x2 = 0.55	924.21 ± 0.36	915.93 ± 0.38	907.36 ± 0.4	27.63 ± 0.41	26.93 ± 0.4	26.25 ± 0.39	3.169 ± 0.042	2.37 ± 0.032	1.858 ± 0.025
x2 = 0.6	910.83 ± 0.39	902.49 ± 0.4	893.86 ± 0.41	26.83 ± 0.4	26.15 ± 0.39	25.48 ± 0.38	3.01 ± 0.04	2.256 ± 0.03	1.769 ± 0.024
x2 = 0.65	896.91 ± 0.41	888.53 ± 0.42	879.84 ± 0.44	26.05 ± 0.39	25.38 ± 0.38	24.73 ± 0.37	2.858 ± 0.038	2.145 ± 0.029	1.68 ± 0.023
x2 = 0.7	882.44 ± 0.43	874.02 ± 0.45	865.32 ± 0.46	25.28 ± 0.38	24.61 ± 0.37	23.98 ± 0.36	2.715 ± 0.036	2.042 ± 0.027	1.594 ± 0.022
x2 = 0.75	867.32 ± 0.46	858.91 ± 0.47	850.19 ± 0.49	24.53 ± 0.37	23.85 ± 0.36	23.23 ± 0.35	2.58 ± 0.034	1.946 ± 0.026	1.511 ± 0.021
x2 = 0.8	851.54 ± 0.49	843.1 ± 0.5	834.29 ± 0.52	23.78 ± 0.36	23.1 ± 0.35	22.48 ± 0.34	2.46 ± 0.033	1.851 ± 0.025	1.434 ± 0.02
x2 = 0.85	835.11 ± 0.51	826.58 ± 0.53	817.75 ± 0.55	23.05 ± 0.35	22.35 ± 0.34	21.73 ± 0.33	2.346 ± 0.031	1.761 ± 0.024	1.359 ± 0.019
x2 = 0.9	817.95 ± 0.55	809.39 ± 0.56	800.5 ± 0.58	22.33 ± 0.34	21.6 ± 0.33	20.96 ± 0.33	2.251 ± 0.03	1.675 ± 0.023	1.295 ± 0.018
x2 = 0.95	800 ± 0.58	791.45 ± 0.59	782.46 ± 0.61	21.61 ± 0.33	20.85 ± 0.32	20.19 ± 0.32	2.148 ± 0.029	1.602 ± 0.022	1.228 ± 0.017

OCCc1ccccc1 [2-phenylethanol] + OCc1ccccc1
Conditions	mass density, 298.15 K [kg/m3]	mass density, 308.15 K [kg/m3]	mass density, 318.15 K [kg/m3]	surface tension liquid-gas, 298.15 K [mN/m]	surface tension liquid-gas, 308.15 K [mN/m]	surface tension liquid-gas, 318.15 K [mN/m]	viscosity, 298.15 K [mPa·s]	viscosity, 308.15 K [mPa·s]	viscosity, 318.15 K [mPa·s]
x2 = 0	1016.2 ± 0.39	1008.63 ± 0.37	1000.98 ± 0.36	39.43 ± 0.58	38.93 ± 0.57	38.35 ± 0.56	11.4 ± 0.14	7.518 ± 0.098	5.232 ± 0.071
x2 = 0.05	1018.11 ± 0.39	1010.83 ± 0.37	1003.42 ± 0.35	–	–	–	11.07 ± 0.14	7.322 ± 0.095	5.116 ± 0.07
x2 = 0.1	1020.14 ± 0.38	1013.11 ± 0.36	1005.98 ± 0.35	39.2 ± 0.57	38.7 ± 0.57	38.11 ± 0.56	10.73 ± 0.14	7.132 ± 0.093	5 ± 0.068
x2 = 0.15	1022.33 ± 0.38	1015.32 ± 0.36	1008.23 ± 0.34	–	–	–	10.41 ± 0.13	6.94 ± 0.09	4.883 ± 0.066
x2 = 0.2	1024.45 ± 0.37	1017.42 ± 0.35	1010.36 ± 0.34	39 ± 0.57	38.48 ± 0.56	37.86 ± 0.55	10.08 ± 0.13	6.752 ± 0.088	4.77 ± 0.065
x2 = 0.25	1026.56 ± 0.37	1019.52 ± 0.35	1012.41 ± 0.33	–	–	–	9.759 ± 0.12	6.564 ± 0.085	4.655 ± 0.063
x2 = 0.3	1028.52 ± 0.36	1021.44 ± 0.35	1014.25 ± 0.33	38.83 ± 0.56	38.28 ± 0.55	37.63 ± 0.55	9.44 ± 0.12	6.372 ± 0.083	4.542 ± 0.061
x2 = 0.35	1030.34 ± 0.36	1023.25 ± 0.34	1015.99 ± 0.33	–	–	–	9.125 ± 0.11	6.186 ± 0.08	4.43 ± 0.06
x2 = 0.4	1032.11 ± 0.35	1024.95 ± 0.34	1017.65 ± 0.32	38.7 ± 0.56	38.1 ± 0.55	37.41 ± 0.54	8.816 ± 0.11	5.999 ± 0.078	4.32 ± 0.058
x2 = 0.45	1033.8 ± 0.35	1026.61 ± 0.33	1019.28 ± 0.32	–	–	–	8.506 ± 0.11	5.815 ± 0.076	4.21 ± 0.056
x2 = 0.5	1035.25 ± 0.34	1028.06 ± 0.33	1020.74 ± 0.31	38.6 ± 0.55	37.95 ± 0.54	37.21 ± 0.53	8.203 ± 0.1	5.636 ± 0.074	4.101 ± 0.055
x2 = 0.55	1036.33 ± 0.34	1029.16 ± 0.32	1021.87 ± 0.31	–	–	–	7.913 ± 0.099	5.467 ± 0.071	3.997 ± 0.053
x2 = 0.6	1037.32 ± 0.33	1030.12 ± 0.32	1022.84 ± 0.3	38.6 ± 0.55	37.9 ± 0.54	37.12 ± 0.53	7.628 ± 0.096	5.302 ± 0.069	3.897 ± 0.052
x2 = 0.65	1038.01 ± 0.33	1030.89 ± 0.31	1023.63 ± 0.3	–	–	–	7.351 ± 0.092	5.14 ± 0.067	3.797 ± 0.051
x2 = 0.7	1038.62 ± 0.32	1031.56 ± 0.31	1024.26 ± 0.29	38.6 ± 0.55	37.85 ± 0.54	37.02 ± 0.53	7.081 ± 0.089	4.979 ± 0.066	3.697 ± 0.049
x2 = 0.75	1039.06 ± 0.31	1031.9 ± 0.3	1024.63 ± 0.28	–	–	–	6.813 ± 0.086	4.821 ± 0.063	3.599 ± 0.048
x2 = 0.8	1039.43 ± 0.31	1032.23 ± 0.29	1024.86 ± 0.28	38.6 ± 0.55	37.8 ± 0.54	36.92 ± 0.52	6.554 ± 0.083	4.666 ± 0.061	3.5 ± 0.046
x2 = 0.85	1039.72 ± 0.3	1032.44 ± 0.29	1024.99 ± 0.27	–	–	–	6.296 ± 0.079	4.519 ± 0.059	3.402 ± 0.045
x2 = 0.9	1040 ± 0.3	1032.65 ± 0.28	1025.18 ± 0.27	38.6 ± 0.54	37.76 ± 0.53	36.84 ± 0.52	6.036 ± 0.076	4.374 ± 0.057	3.306 ± 0.044
x2 = 0.95	1040.59 ± 0.29	1033.06 ± 0.28	1025.43 ± 0.26	–	–	–	5.787 ± 0.074	4.232 ± 0.055	3.213 ± 0.042
